Blank lines part the entries; values can stand above or below the compound they belong to.
Assays:
H-Ras-F cells [1] = test: Cell morphology of lovastatin-treated H-Ras-F cells; assay type: cell-based; conditions: 25 μM lovastatin 24 h, then analog 24 h
Procedure: (§1) It has been well established that levels of lovastatin that completely block the mevalonate pathway result in cell cycle blockade, significant cytotoxicity, and a sharp change in cell appearance to a rounded morphology. The effects of lovastatin on the cell morphology of H-Ras-F and H-Ras-GG cells treated with FPP, GGPP, 3-vFPP, 3-vGGPP, 3-alFPP, and 3-alGGPP were photographed and the results are shown on FIG. 9 (H-Ras-F) and 8 (H-Ras-GG), respectively. The H-Ras-F and H-Ras-GG cells were grown in six-well plates to 70-80% confluence. After treating the cells with lovastatin (25 μM) for 24 hour, the indicated FPP or GGPP analogs (re-suspended in media) were added directly to the cell media. Photographs were taken after an additional 24 hour incubation period.

recombinant mGGTase I = recombinant mGGTase I (Homo sapiens, UniProt P49354+P53609); test: GGTase I scintillation proximity assay; assay type: biochemical; conditions: tritiated GGPP
Procedure: (§2) The method is described in detail in Yokama, et al., J. Biol. Chem., Vol. 272, No. 7, pages 3944-3952 (February 1997). The FTase, tritiated FPP, and the peptide were incubated at 37° C. for 30 minutes in a buffer. After incubation, a stop reagent and streptavidin beads (Amersham) were added. The radioactive product was counted on a Wallac Microbeta 1450 scintillation counter. The kinetic fits were derived from a nonlinear least squares computer fit of the data. The Ki values were determined using the same assay system with varying concentrations of tritiated FPP.
GGTase I values were determined in a similar manner using recombinant mGGTase I, tritiated GGPP, and the peptide Biotin-Aha-Thr-Lys-Cys-Val-Ile-Leu-OH.

[2] = molecular target: recombinant mFTase (affinity purified rat FPTase) (Rattus norvegicus, UniProt Q02293+Q04631); test: FTase scintillation proximity assay; assay type: biochemical; conditions: for IC50: recombinant mFTase, tritiated FPP 0.12 μM, peptide 0.1 μM; for FTase/GGTase: selectivity mFTase against mGGTase I
Procedure: as §2

H-Ras-GG cells = test: Cell morphology of lovastatin-treated H-Ras-GG cells; assay type: cell-based; conditions: 25 μM lovastatin 24 h, then analog 24 h
Procedure: as §1

H-Ras-F cells [3] = test: Incorporation of radiolabel into proteins of H-Ras-F cells; assay type: cell-based; conditions: 5 μM, 18 h, lovastatin-treated H-Ras-F cells
Procedure: H-Ras-F cells were treated with 25 μM lovastatin for 24 h after which the following were added directly to four samples of the cell media: (1) control-untreated, (2) 3-vinyl-1-[^3H]-farnesol (5 μM, 1.34 μCi/ml), (3) 1-[^3H]-FPP (3 μM, 50 μCi/ml; Amersham), and (4) 1-[^3H]-farnesol (3 μM, 50 μCi/ml; American Radiolabeled Chemicals). […] After drying, the membranes were sprayed with En^3Hance (Amersham) and exposed to film (Hyperfilm MP, Amersham) for a period of time prior to developing (4 days for 1-[^3H]-FPP and 1-[^3H]-farnesol) and 28 days for 3-vinyl-1-[^3H]-farnesol). The exposed films are shown on FIG. 8 where the control and radioactive bands are designated as indicated above.

[4] = tested on: HPAC (human pancreatic adenocarcinoma cells); test: Proliferation of HPAC cells, Trypan Blue exclusion; assay type: cell-based; conditions: 48 hours
Procedure: The malignant human cell line HPAC (human pancreatic adenocarcinoma cells) was used in this study. The cells were seeded at a concentration of 2×10^5/ml in 24 well culture plate (Costar, Cambridge, Mass). […] Varying amounts of the stock solutions were then used to treat the HPAC cells. The final concentration of the farnesol analogs in the culture plate wells ranged from 0 nM (ethanol-treated control) to 500 nM. The plate was then incubated at 37° C. under a 5% CO2-humidified atmosphere for 48 hours. The total viable cells from each well were determined by Trypan Blue (0.4%) exclusion (Gibco, N.Y.) followed by cell counting.

H-Ras-F cells [5] = test: Proliferation of H-Ras-F cells (control experiments); assay type: cell-based
[6] = tested on: H-Ras-GG in H-Ras-GG cells; test: Subcellular fractionation / Western blot of Ras in lovastatin-treated H-Ras-GG cells; assay type: cell-based
Procedure: H-Ras-F (A) or H-Ras-GG (B) cells were treated with 25 μM lovastatin for 24 h after which the indicated FPP or GGPP analogs (resuspended in media) were added directly to the cell media. Following an additional 24 h incubation period, the cells were harvested, lysed and the membranes (M) separated from the cytosol (C). After solubilization of the membrane fraction, Ras protein was immunoprecipitated from both the membrane and cytosolic fractions by the addition of the Y13-259 antibody (OP04 from Oncogene Science). The presence of Ras protein in each fraction was analyzed by Western transfer techniques. Incubation with the primary antibody (pan-ras Ab-2 from Oncogene Science) and an anti-mouse HRP conjugate secondary antibody (Amersham) was employed for detection of the ras protein. Blots were developed using Enhanced Chemiluminescence techniques (Amersham). The technique is described in detail by Scholten, et al., Bioorg. Med. Chem., Vol. 4, pages 1537-1543 (1992).
The selectivity and mechanism of the observed cell growth inhibition was further probed by studying the effects of the 3-vinyl and 3-allyl GGPP analogs on the subcellular distribution of the geranylgeranylated protein variant in H-Ras-GG cells in a manner similar to that described for 3-vFPP and 3-alFPP. The Western blot is shown on FIG. 8. With H-Ras-GG cells, as with H-Ras-F cells, blockage of the mevalonate pathway results in a shift in the subcellular location of the Ras protein from the membrane to the cytosol.

[7] = tested on: NIH 3T3 fibroblasts transfected with H-Ras(61 L) [H-Ras-F]; test: Soft agar anchorage-independent growth, H-Ras-F cells; assay type: cell-based; conditions: soft agar, 2 weeks; read-out: Mean IC50 (±S.E.) H-Ras-F
Procedure: (§3) Presumably, the non-polar alcohols pass through the cell membrane and are then diphosphorylated by an as yet uncharacterized kinase to FPP or GGPP.
(§4) The 3-substituted analogs were evaluated as inhibitors of the growth of ras-transformed cells by comparing their relative degree of activity against an isogenic panel of transformed cell lines, comprised of NIH 3T3 fibroblasts transfected with either H-Ras(61 L) [H-Ras-F], H-Ras(61 L)CVLL [H-Ras-GG], or a transforming form of c-raf [Raf]. The H-Ras-F, H-Ras-GG, and raf transformed NIH3T3 cell lines have been previously described in Cox, et al., Molecular and Cellular Biology, Vol. 12, No. 6, pages 2606-2615 (1992). The cells were grown prior to plating in Dulbecco's modified Eagle medium supplemented with 10% calf serum and 1% antibiotic/antimycotic at 37° C. and 10% CO2. Experiments were carried out in 6-well dishes in a two layer agar system (0.6% bottom layer and 0.3% top layer). Cells were incorporated into the top layer along with varying concentrations of the compound prepared in ethanol. Compound addition occurred only at the time the cells were seeded. Subsequent incubation was at 37° C. with 10% CO2 for 2 weeks. Colonies were stained with 0.5 ml/well of 1 mg/ml p-iodonitrotetrazolium violet (Sigma) for 24 hours prior to quantitation by image analysis.

[8] = tested on: NIH 3T3 fibroblasts transfected with H-Ras(61 L)CVLL [H-Ras-GG]; test: Soft agar anchorage-independent growth, H-Ras-GG cells; assay type: cell-based; conditions: 2 weeks, read-out: Mean IC50 (±S.E.) H-Ras-GG
Procedure: as §3, §4

[9] = tested on: NIH 3T3 fibroblasts transfected with a transforming form of c-raf [Raf]; test: Soft agar anchorage-independent growth, Raf cells; assay type: cell-based; conditions: 2 weeks, mean of two tests
Procedure: as §3, §4

IC50 (recombinant mGGTase I): 3.38 µM
IC50 [2]: 0.453 µM
FTase/GGTase [2]: 7.5
Compound: C=CC/C(=C\COP(=O)(O)OP(=O)(O)O)CC/C=C(\C)CC/C=C(\C)CCC=C(C)C [Compound 3-alGGPP, 3-Allyl-7,11,15-trimethylhexadeca-2(Z),6(E),10(E),14-tetraene diphosphate]
Reversal of rounded morphology of lovastatin-treated H-Ras-F cells (H-Ras-F cells [1]): reversion in morphology
Restoration of flattened morphology of lovastatin-treated H-Ras-GG cells (H-Ras-GG cells): partially restore

Compound: [3H]C(O)C=C(C=C)CCC=C(C)CCC=C(C)C (centres unmarked) [3-vinyl-1-[^3H]-farnesol]
Radiolabel incorporation into protein bands (H-Ras-F cells [3]): the radiolabel migrates with the same protein bands as seen when cells are treated with tritiated farnesol and FPP

Compound: CC(C)=CCCC(C)=CCCC(C)=CCO [farnesol, reference compound]
Effect on HPAC cells at 500 nM [4]: no effect
Effect on proliferation of H-Ras-F cells (H-Ras-F cells [5]; 30 μM, data not shown): little effect

Compound: 3-Vinyl-7,11-dimethyldodeca-2(Z),6(E),10-trien-1-ol [3-vinyl Farnesol]
Effect on HPAC cells at 100 nM ([4]; 100 nM): cytostasis
Viable HPAC cell count at 100 nM ([4]; 100 nM, seeded 2×10^5/ml, control well 2.2×10^6 cells): ~2×10^5 /well
Effect on HPAC cells at 500 nM ([4]; listed as 3-Vinylfarnesol): complete cytotoxicity
Effect on HPAC cells at 500 nM ([4]; listed as 3-vinylfarnesol): potently cytotoxic
Effect on growth of H-Ras-F cells (H-Ras-F cells [5]; concentration not given): complete inhibition of growth

IC50 (recombinant mGGTase I): 3.05 µM
IC50 [2]: 0.715 µM
FTase/GGTase [2]: 4.3
Compound: 3-vinyl geranylgeranyl diphosphate [Compound 3-vGGPP]
Reversal of rounded morphology of lovastatin-treated H-Ras-F cells (H-Ras-F cells [1]): restore the flattened morphology of cells
Membrane localization of H-Ras-GG ([6]; H-Ras-GG cells, lovastatin-treated): resulted in restoration of the membrane localization of H-Ras-GG
Restoration of flattened morphology of lovastatin-treated H-Ras-GG cells (H-Ras-GG cells): completely restore

Compound: C=CC/C(=C\CO)CC/C=C(\C)CC/C=C(\C)CCC=C(C)C [3-allyl Geranylgeraniol, 3-Allyl-7,11,15-trimethylhexadeca-2(Z),6(E),10(E),14-tetraen-1-ol]
IC50 [7]: > 25 µM
Protein geranylgeranylation in cells ([6]; summary statement): inhibits protein geranylgeranylation
IC50 [8]: 4.6 µM
IC50 [9]: > 25 µM

Reference: patent US6586461B1, “Prenyl transferase inhibitors” (Wayne State University, priority 1998, dated 2003)
